Reference: patent EP1586565A1, “Substituted polycyclic aryl and heteroaryl pyrazinones useful for selective inhibition of the coagulation cascade” (Pharmacia Corporation, priority 1999, dated 2000)

Tests used:
TF-VIIa = target: T1, TF-VIIa (Homo sapiens, UniProt P08709); experiment: TF-VIIa Assay; format: biochemical; details: for IC50 or % Inhibition TF-VIIa (30 µM): % inhibition at 30 µM (cells with % or %@30, bare 0); for IC50: cells printed as bare numbers (IC50), read-out: IC50 or % Inhibition TF-VIIa (30 µM)
T1 construct: An extrinsic pathway is initiated by the conversion of coagulation factor VII to VIIa by Xa; purchased American Diagnostica, Greenwich CT; Soluble TF was made in house in E. coli
T1 sequence (P08709 213-466 limits assumed): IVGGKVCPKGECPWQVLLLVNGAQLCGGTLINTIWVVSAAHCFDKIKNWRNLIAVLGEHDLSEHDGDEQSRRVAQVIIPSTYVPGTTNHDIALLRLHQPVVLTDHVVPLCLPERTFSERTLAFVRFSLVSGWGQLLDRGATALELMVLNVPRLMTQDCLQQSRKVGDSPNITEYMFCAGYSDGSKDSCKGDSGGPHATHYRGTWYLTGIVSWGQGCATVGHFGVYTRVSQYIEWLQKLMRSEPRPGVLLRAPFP
T1 sequence (P08709 61-212 limits assumed): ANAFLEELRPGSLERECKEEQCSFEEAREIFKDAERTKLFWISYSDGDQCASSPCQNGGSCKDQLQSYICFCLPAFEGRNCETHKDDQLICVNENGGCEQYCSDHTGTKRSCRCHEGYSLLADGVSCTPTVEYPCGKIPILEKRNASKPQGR
T1 sequence (P13726 33-251 partner limits assumed): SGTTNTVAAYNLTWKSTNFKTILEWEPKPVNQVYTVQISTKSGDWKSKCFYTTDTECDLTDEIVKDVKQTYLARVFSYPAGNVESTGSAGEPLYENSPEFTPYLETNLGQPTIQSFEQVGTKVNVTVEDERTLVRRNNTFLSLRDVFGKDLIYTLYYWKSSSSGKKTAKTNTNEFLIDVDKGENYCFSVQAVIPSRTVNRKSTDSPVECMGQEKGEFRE

Human factor Xa = target: T2, Human factor Xa (Homo sapiens, UniProt P00742); experiment: Xa Assay; format: biochemical; details: for IC50 or % Inhibition Factor Xa (30 µM): % inhibition at 30 µM (cells with % or %@30, bare 0)
T2 construct: leads from XII to XIIa to XIa to IXa and to the conversion of X to Xa; purchased Enzyme Research Laboratories, South Bend IN
T2 sequence (P00742 235-488 limits assumed): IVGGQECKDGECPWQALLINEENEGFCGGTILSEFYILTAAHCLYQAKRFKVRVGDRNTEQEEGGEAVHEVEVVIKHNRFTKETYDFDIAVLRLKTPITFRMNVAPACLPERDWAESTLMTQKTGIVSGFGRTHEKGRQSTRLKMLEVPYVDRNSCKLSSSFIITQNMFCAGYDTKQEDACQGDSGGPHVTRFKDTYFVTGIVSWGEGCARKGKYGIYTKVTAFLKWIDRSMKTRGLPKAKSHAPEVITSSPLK
T2 sequence (P00742 41-179 limits assumed): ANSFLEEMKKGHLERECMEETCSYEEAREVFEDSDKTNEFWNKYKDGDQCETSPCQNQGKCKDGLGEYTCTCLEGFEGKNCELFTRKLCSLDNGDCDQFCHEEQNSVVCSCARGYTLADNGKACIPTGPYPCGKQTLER

Trypsin = Trypsin (Sus scrofa, UniProt P00761); experiment: Trypsin Assay; details: for IC50 or % Inhibition Trpysin II (30 uM): % inhibition at 30 uM (cells with % or %@30, bare 0); for IC50: read-out: IC50 or % Inhibition Trpysin II (30 uM), cells printed as bare numbers (IC50)
Chain of Trypsin (P00761 9-231): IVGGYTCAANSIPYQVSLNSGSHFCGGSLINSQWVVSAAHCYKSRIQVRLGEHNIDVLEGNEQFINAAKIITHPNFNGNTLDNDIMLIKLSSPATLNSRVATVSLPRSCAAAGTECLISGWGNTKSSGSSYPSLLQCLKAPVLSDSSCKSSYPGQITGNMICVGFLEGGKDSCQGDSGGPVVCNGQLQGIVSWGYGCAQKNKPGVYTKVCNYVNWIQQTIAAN

| Structure (SMILES) | IC50 or % Inhibition TF-VIIa (30 µM) (TF-VIIa) | IC50 or % Inhibition Factor Xa (30 µM) (Human factor Xa) | further results |
| --- | --- | --- | --- |
| N=C(N)c1ccc(CNC(=O)Cn2c(-c3ccc(Cl)cc3)c(Cl)nc(NCc3ccncc3)c2=O)cc1 [1471-19] | 33% | 26% |  |
| N=C(N)c1ccc(CNC(=O)Cn2c(-c3ccc(Cl)cc3)c(Cl)nc(NCCN3CCOCC3)c2=O)cc1 [1471-20] | 42% | 34% |  |
| COc1ccc(-c2c(Cl)nc(NCc3ccccc3)c(=O)n2CC(=O)NCc2ccc(C(=N)N)cc2)cc1 [1471-33] | 31% | 22% |  |
| COc1ccc(-c2c(Cl)nc(NCc3ccncc3)c(=O)n2CC(=O)NCc2ccc(C(=N)N)cc2)cc1 [1471-35] | 37% | 22% |  |
| COc1ccc(-c2c(Cl)nc(NCCN3CCOCC3)c(=O)n2CC(=O)NCc2ccc(C(=N)N)cc2)cc1 [1471-36] | 11% | 6% |  |
| COc1ccc(-c2c(Cl)nc(NCCc3ccncc3)c(=O)n2CC(=O)NCc2ccc(C(=N)N)cc2)cc1 [1471-37] | 39% | 7% |  |
| COc1ccc(-c2c(Cl)nc(NCCc3cccnc3)c(=O)n2CC(=O)NCc2ccc(C(=N)N)cc2)cc1 [1471-40] | 40% | 11% |  |
| N=C(N)c1ccc(CNC(=O)Cn2c(-c3ccc4c(c3)OCO4)c(Cl)nc(NCCN3CCOCC3)c2=O)cc1 [1471-44] | 34% | 13% |  |
| CCc1c(Cl)nc(NCCc2cccc(Cl)c2)c(=O)n1CC(=O)NCc1ccc(C(=N)N)cc1 [1471-62] | 4% | 0% |  |
| N=C(N)c1ccc(CNC(=O)Cn2c(-c3ccc(-c4ccccc4)cc3)c(Cl)nc(NCc3ccncc3)c2=O)cc1 [1471-67] | 12% | 16% |  |
| N=C(N)c1ccc(CNC(=O)Cn2c(-c3ccc(-c4ccccc4)cc3)c(Cl)nc(NCCc3cccc(Cl)c3)c2=O)cc1 [1471-70] | 10% | 12% |  |
| N=C(N)c1ccc(CNC(=O)Cn2c(-c3ccc(-c4ccccc4)cc3)c(Cl)nc(NCCc3ccccc3)c2=O)cc1 [1471-71] | 6% | 0% |  |
| N=C(N)c1ccc(CNC(=O)Cn2c(-c3ccc(-c4ccccc4)cc3)c(Cl)nc(NCCc3cccnc3)c2=O)cc1 [1471-72] | 15% | 22% |  |
| N=C(N)c1ccc(CNC(=O)Cn2c(-c3ccccc3)c(Cl)nc(NC(Cc3ccccc3)c3ccccc3)c2=O)cc1 (stereo not drawn) [1507-07] | 25% |  |  |
| N=C(N)c1ccc(CNC(=O)Cn2c(-c3ccccc3)c(Cl)nc(NC3Cc4ccccc4C3)c2=O)cc1 [1507-08] | 7% | 1% |  |
| N=C(N)c1ccc(CNC(=O)Cn2c(-c3ccccc3)c(Cl)nc(NCc3ccc(Cl)cc3Cl)c2=O)cc1 [1507-22] | 45% |  |  |
| N=C(N)c1ccc(CNC(=O)Cn2c(-c3ccccc3)c(Cl)nc(NCc3ccccn3)c2=O)cc1 [1507-24] | 0% | 15% | IC50 or % Inhibition Trpysin II (30 uM) (Trypsin): 25%@30 |
| N=C(N)c1ccc(CNC(=O)Cn2c(-c3ccccc3)c(Cl)nc(NCc3cccc4ccccc34)c2=O)cc1 [1507-28] | 38% |  |  |
| N=C(N)c1ccc(CNC(=O)Cn2c(-c3ccccc3)c(Cl)nc(NCC(F)(F)F)c2=O)cc1 [1507-41] | 48% | 17% |  |
| N=C(N)c1ccc(CNC(=O)Cn2c(-c3ccccc3)c(Cl)nc(NCc3cc(F)cc(C(F)(F)F)c3)c2=O)cc1 [1512-29] | 47% | 4% |  |
| Cc1cccc(Cl)c1CNc1nc(Cl)c(-c2ccccc2)n(CC(=O)NCc2ccc(C(=N)N)cc2)c1=O [1512-31] | 43% | 14% |  |
| N=C(N)c1ccc(CNC(=O)Cn2c(-c3ccccc3)c(Cl)nc(NCc3cccc(OC(F)(F)F)c3)c2=O)cc1 [1512-40] | 40% | 3% |  |
| N=C(N)c1ccc(CNC(=O)Cn2c(-c3ccccc3)c(Cl)nc(NCc3c(F)cccc3C(F)(F)F)c2=O)cc1 [1512-44] | 43% | 6% |  |
| Cc1cc(Cl)cc(Cl)c1CNc1nc(Cl)c(-c2ccccc2)n(CC(=O)NCc2ccc(C(=N)N)cc2)c1=O [1512-45] | 27% | 11% |  |
| N=C(N)c1ccc(CNC(=O)Cn2c(-c3ccc(C(F)(F)F)cc3)c(Cl)nc(NC3CCC3)c2=O)cc1 [1515-20] | 32% |  |  |
| N=C(N)c1ccc(CNC(=O)Cn2c(-c3ccccc3)c(Cl)nc(N3CCC3)c2=O)cc1 [1522-28] |  |  | IC50 (TF-VIIa): > 30 µM |
| Nc1ccc(CNC(=O)Cn2c(Cc3ccccc3)c(Cl)nc(NCCc3ccccc3)c2=O)cn1 [Example 9] |  |  | IC50 (TF-VIIa): > 30 µM; IC50 (Trypsin): > 30 µM |
| Nc1ccc(CNC(=O)Cn2c(CCc3ccccc3)c(Cl)nc(NCCc3ccccc3)c2=O)cn1 [Example 10, 3-(2-Phenylethylamino)-5-chloro-6-phenethyl-1-(2-amino-5-methylcarboxamidomethylpyridinyl)pyrazinone] |  |  | IC50 (TF-VIIa): > 30 µM; IC50 (Trypsin): > 30 µM |
| O=C(Cn1c(-c2ccc(-c3ccccc3)cc2)c(Cl)nc(NCCc2ccc(Cl)cc2)c1=O)NCCc1ccncc1 [Example E-0118] |  |  | % Inhibition Factor Xa (100 µM) (Human factor Xa; 100 µM): 3% |

Continued, in another order:

| IC50 or % Inhibition TF-VIIa (30 µM) (TF-VIIa) | IC50 or % Inhibition Factor Xa (30 µM) (Human factor Xa) | Structure (SMILES) | further results |
| --- | --- | --- | --- |
| 43% | 0% | N=C(N)c1ccc(CNC(=O)C(Cc2ccccc2)n2c(-c3ccccc3)c(Cl)nc(NC3CCC3)c2=O)cc1 (stereo not drawn) [1517-08] |  |
| 30% | 0% | N=C(N)c1ccc(CNC(=O)C(Cc2ccccc2)n2c(-c3ccccc3)c(Cl)nc(NCCc3ccccc3)c2=O)cc1 (stereo not drawn) [1517-14] |  |
| 22% | 0% | N=C(N)c1ccc(CNC(=O)C(Cc2ccccc2)n2c(-c3ccccc3)c(Cl)nc(NCCc3cccc(Cl)c3)c2=O)cc1 (stereo not drawn) [1517-20] |  |
| 33% | 0% | CCCCNc1nc(Cl)c(-c2ccccc2)n(CC(=O)NCc2ccc(C(=N)N)cc2)c1=O [1517-35] |  |
| 25% | 0% | N=C(N)c1ccc(CNC(=O)Cn2c(-c3ccccc3)c(Cl)nc(NCC3CC3)c2=O)cc1 [1517-43] | IC50 or % Inhibition Trpysin II (30 uM) (Trypsin): 43% |
| 8%@30 |  | N=C(N)c1ccc(CNC(=O)Cn2c(-c3ccc(-c4ccccc4)cc3)c(Cl)nc(NCCc3cccnc3)c2=O)cc1 [Example 21] |  |
| 0%@30 |  | N=C(N)c1ccc(CNC(=O)Cn2c(-c3ccc(-c4ccccc4)cc3)c(Cl)nc(NCCc3ccc(Cl)cc3)c2=O)cc1 [Example 22] |  |
| 5% | 0% | N=C(N)NCC#CCNC(=O)Cn1c(-c2ccccc2)cnc(NCCc2ccccc2)c1=O [Example 36] | IC50 or % Inhibition Trpysin II (30 uM) (Trypsin): 30% |
| 1% | 0% | CC(C)Nc1nc(Cl)c(-c2cccc([N+](=O)[O-])c2)n(CC(=O)NCc2ccc(C(N)=NO)cc2)c1=O [Example 61] | IC50 or % Inhibition Trpysin II (30 uM) (Trypsin): 10% |
| 32% | 6% | CC(=O)Nc1cccc(-c2c(Cl)nc(NC(C)C)c(=O)n2CC(=O)NCCc2ccc(C(=N)N)cc2)c1 [Example 68] |  |
|  | 0% | CC(C)Nc1nc(Cl)c(-c2cc(N)ccc2F)n(CC(=O)NCc2ccc(C(=N)N)cc2F)c1=O [compound 73] |  |
|  | 13% | CC(C)Nc1nc(Cl)c(-c2ccc(Cl)nc2)n(CC(=O)NCc2ccc(C(=N)N)cc2F)c1=O [compound 74] |  |
|  | 9% | CC(C)Nc1nc(Cl)c(-c2cccnc2)n(CC(=O)NCc2ccc(C(=N)N)cc2)c1=O [compound 75] |  |
|  | 0% | CSc1ccc(N)cc1-c1c(Cl)nc(NC(C)C)c(=O)n1CC(=O)NCc1ccc(C(=N)N)cc1 [compound 76] |  |
| 5%@30 | 5%@30 | Nc1cccc(-c2c(Cl)nc(NC3CCC3)c(=O)n2CC(=O)NCCc2ccccc2)c1 [compound 89] | IC50 or % Inhibition Trpysin II (30 uM) (Trypsin): 9%@30 |
| 6%@30 | 8%@30 | Nc1cccc(-c2c(Cl)nc(NC3CCC3)c(=O)n2CC(=O)NCc2ccccc2)c1 [compound 99] | IC50 or % Inhibition Trpysin II (30 uM) (Trypsin): 7%@30 |
